In patent publication US10918648B2, “Estrogen receptor modulator combinations” (The Regents of the University of California, priority 2016, dated 2021):

Columns and labels:
[1] = system: MAPK: ERK-1 (p44) and ERK-2 (p42); test: Estrogen-induced MAPK phosphorylation, Western blot in MCF-7 cells; type: cell-based, human; conditions: MCF-7 parent cells, 1 nM estradiol (E2); antagonists pre-incubated at 1000 nM; FIG. 7A
Experimental: ERD inhibition of phosphorylation of MAPK, at both extracellular signal-regulated kinases ERK-1 (p44) and ERK-2 (p42) and downstream effects. […] Thus, we measured estrogen-induced phosphorylation of MAPK by established methods (9,15,16). Briefly, MCF-7 parental cells were estrogen deprived for 48 hrs, then treated with 1 nM estradiol-1713 in the presence of new compounds (10 nM-10 μM) to be tested for antagonist activity. After treatments, cell lysates were separated by SDS-PAGE followed by Western blot using a polyclonal antibody directed to phospho-p44/p42 MAP kinase (Thr202/Tyr204) (Cell Signaling). Immunodetection with antibody against total p44/p42 (Cell Signaling) was done as a control for gel loading. […] ERD S15 was as effective as fulvestrant in inhibiting the rapid estrogen-induced MAPK phosphorylation in breast tumor cells in vitro. […] E2 but not vehicle (CN) induced rapid phosphorylation of ERK-1 (p44) and ERK-2 (p42). This activation was prevented when cells were pre-incubated with 1000 nM ICI 182,780 (ICI; Faslodex) or 1000 nM compound S15 in the presence of estradiol (E2).

cyclin D1 = test: Cyclin D1 expression, Western immunoblot in MCF-7 cells; type: cell-based, human; conditions: 24 hrs, 10% FBS, 1 μM and 10 μM, FIG. 7B
Experimental: FIG. 7B. […] Western immunoblot of cyclin D1 after treating MCF-7 cells 24 hrs with 10% FBS and 1 μM and 10 μM doses of JD105, JD128 and JD140. Refer to FIG. S4 methods and previous reports (20).
Next, SERD compounds developed in our laboratory were tested for a capability to suppress the expression of cyclin D1 in ERα-positive human breast cancer cells MCF-7 which were used to validate the activity of other hormonal agents previously (see 20) (FIG. 7B).
Gel electrophoresis and immunoblotting: Breast and lung tumor cells were treated in phenol-red free RPMI1640/DMEM with 5% DCC-FBS (26). After selected treatments cells were homogenized in the presence of protease inhibitors using RIPA buffer (Thermo Scientific). All procedures were performed in ice, lysates were centrifuged and protein concentration quantified in the supernatants using a Thermo Scientific® BCA protein assay kit. Approximately 20-60 μg of total protein were heated in the presence of Laemmli sample buffer (Biorad) to 100° C. for 10 min and loaded it on a gradient TGX gel 4-15% (Biorad). Gels were transferred to PVDF membranes for immunoblotting. Membranes were blocked either with 5% milk in Tris Buffer Saline with 0.1% Tween 20 or protein-free blocking solution (Thermo Scientific). […]

[2] = system: Tamoxifen-resistant human MCF-7 breast cancer cells; test: Endocrine-resistant breast cancer cell proliferation in vitro; type: cell-based; conditions: 72 hrs; 50 nM Palbociclib, 10 nM S128, or both; P<0.001 vs control and 100 nM tamoxifen; FIG. 10
Experimental: Tamoxifen-resistant human MCF-7 breast cancer cells were treated in vitro with control vehicle (CON), 100 nM tamoxifen (TAM), 50 nM Palbociclib (Pb) or 10 nM S128 or with Palbociclib in combination with S128 (S128+Pb) over 72 hrs. […] (FIG. 10)

Row | Compound | phosphorylation of MAPK (ERK-1 p44 and ERK-2 p42) [1] | cyclin D1 expression (cyclin D1) | endocrine-resistant breast cancer cell proliferation [2]
1 | C[C@]12C[C@H](Oc3ccc(N)cc3)[C@@H]3c4ccc(O)cc4CC[C@H]3[C@@H]1CC[C@@H]2O [JD105, (8S,9S,11S,13S,14S,17S)-11-(4-aminophenoxy)-13-methyl-7,8,9,11,12,13,14,15,16,17-decahydro-6H-cyclopenta[a]phenanthrene-3,17-diol] | inhibits phosphorylation of MAPK |  | 
2 | C[C@]12C[C@H](Oc3ccc(N)c(C(F)(F)F)c3)[C@@H]3c4ccc(O)cc4CC[C@H]3[C@@H]1CC[C@@H]2O [JD128, (8S,9S,11S,13S,14S,17S)-11-(4-Amino-3-(trifluoromethyl)phenoxy)-13-methyl-7,8,9,11,12,13,14,15,16,17-decahydro-6H-cyclopenta[a]phenanthrene-3,17-diol] |  | down-regulates cyclin D1 | significantly different from control
